Measurements: US4221794A, “Method of imparting immunomodulating and antiviral activity” (Newport Pharmaceuticals International, Inc., priority 1979, dated 1980)
Entries after “also recorded” stand apart in the source; their conditions may differ.

Experiments:
[1] = tested on: influenza virus; assay: microbe, parasite or virus in culture; format: cell-based, influenza virus Type A/USSR 90 (HeLa cell cultures)
[2] = tested on: Herpes virus; assay: Anti-herpes activity, plaque assay (Table 3); format: cell-based, herpes hominis type 2 (Vero cells); settings: for Plaques (PFU) Percent Inhibition: Test 15-150 μg/ml; for reduce plaque formation caused by Herpes Simplex virus: concentrations less than 100 μg/ml
From the text: Anti-Herpes Activity--(Plaque Assay)
The infection of tissue culture cells by Herpes virus causes cell lysis. After a period of time these lysed cells are visualized as a tiny clear area (plaque) on a layer of cells. The incorporation of a test substance into the media will reduce the number of plaques if it is capable of preventing virus replication. The method is as follows:
There was employed herpes hominis type 2 purchased from American Type Culture Collection (ATCC), Bethesda, Maryland, ATCC #VR 540, Lot 3D. The lyophilized viral suspension was reconstituted with 1 ml sterile distilled H2 O. The virus was passed twice through HeLa-cell monolayers. The tissue-culture supernates were pooled, dispensed in 1-ml aliquots, and stored at -70° C.
Vero cells in log-growth phase were subcultured at a concentration of 1×10^5 cells/ml in 50-ml Falcon flasks in Eagle's Minimum Essential Medium (MEM), supplemented with 10% fetal calf serum (FCS) and antibiotics. Media were changed the day following planting. The Vero monolayers reached confluence by the second day after planting and with the cells in log phase, the cultures were used for the plaque assay.
Culture media were poured off and the monolayers were wahsed once with phosphate-buffered saline (PBS). Several different dilutions of the working-stock virus suspension were prepared and each culture flask was infected with 0.5 ml of one of the virus dilutions added to FCS-free medium. […] Controls were prepared with medium devoid of drug.
Virus adsorption was allowed to proceed for 2 hours at 37° C., during which time the cultures were rocked gently every 15 minutes. Then Media were poured off and the monolayers were washed once with 10 ml PBS.
Agarose was prepared at a concentration of 6% w/v in 50 ml PBS. A stock medium of MEM supplemented with 2% FCS was prepared. Drug was added to some of the stock medium at 150 μg/ml. The three solutions were maintained at 47° C. In addition, a 1:10 dilution of pooled human anti-herpes sera was readied. Just before the start of treatment, 15 ml of the agarose solution were added to 85 ml of medium. Another 15 ml of agarose were added to 85 ml of drug-medium.
Each of the washed monolayers in one group of experiments was treated either with 5 ml of agarose-medium or with 5 ml of agarose-drug-medium. In another group of experiments, each monolayer was treated either with 0.2 ml of anti-herpes sera in 5 ml of stock medium, or with 0.2 ml of anti-herpes sera in 5 ml of drug-medium. The anti-herpes sera were used in place of agarose to localize plaques by neutralizing any free virus in the medium. The flasks were allowed to remain at room temperature for 5 minutes, after which they were incubated at 37° C. for 2 days. Triplicate cultures were used for most treatment groups.
Ten ml of PBS then were added to each flask. Overlays were shaken gently and then were poured out of the flasks. The monolayers were stained with a solution 0.5% w/v crystal violet in 50% methanol in triple-distilled H2 O.
Plaques were counted either directly by transmitted fluorescent light and macroviewing, or by the use of light microscopy for microplaques. Microplaques were counted by averaging three fields per experimental group under 150×magnification.

[3] = tested on: spleen cells; assay: In vitro treatment of Con A stimulated mouse spleen cells; format: cell-based; settings: for ability to augment Con A stimulation (in words): compound 1 μg/ml, Con A 5 μg/ml
Procedure: The following day, each group was sacrificed and the spleens removed and pooled. […] The cell concentration of each preparation was determined by a Coulter counter and adjusted to 5×10^6 cells/ml with RPMI medium.
Microtiter assays were carried out in 0.2 ml incubations, containing 5×10^5 cells and Con A or Con A and compounds at the indicated concentrations. All assays were performed with 6 replicates and compared with a blank assay containing only cells. The assay plates were incubated at 37° in 5% CO2 for 4 days. During the final 18-20 hours of incubation, 0.5 ml of ^3 HTdR (10 μCi/ml, 6 Ci /m mole) were added to each culture. The cultures were harvested with a multiple automatic sample harvester (MASH) unit and the incorporated ^3 HTdR determined with a Beckman LS 8000 liquid scintillation counter, as a measure of cell proliferation.

[4] = tested on: influenza virus; assay: Anti-influenza activity (overall); format: cell-based, several strains of A and B sub-types; settings: for inhibit the replication of different strains of influenza virus (number of strains): concentrations ranging from 1-150 μg/ml

SMILES	% Inhibition of Hemadsorption Foci ([1]; Test Compound Conc. <10 μg/ml)	inhibition at 100 µg/mL ([1]; unidentified influenza virus, read-out: % Inhibition of Hemadsorption Foci, Test Compound Conc. >100 μg/ml)	inhibition of replication of Herpes Simplex virus (in words) [2]	Plaques (PFU) Percent Inhibition [2]	reduce plaque formation caused by Herpes Simplex virus [2]	fold induction at 1 µg/mL ([3]; Mus musculus, 96 h, Con A 5 μg/l as printed, compound 1 μg/ml in vitro, read-out: stimulation over Con A alone)	ability to augment Con A stimulation (in words) [3]	anti-influenza activity (in words) ([4]; compound by itself)	inhibit the replication of different strains of influenza virus (number of strains) [4]	% Inhibition of Hemadsorption Foci ([1]; Test Compound Conc. >100 μg/ml)	stimulation over Con A alone ([3]; Con A 5 μg/l as printed, compound 1 μg/ml in vitro, 5760 min)	potentiation of anti-influenza activity by DIP.PAcBA salt [4]
CCCCCC[C@H]([C@H](C)O)n1cnc2c(=O)[nH]cnc21 (relative stereo) [NPT 15392, ERYTHRO-9-(2-HYDROXY-3-NONYL)HYPOXANTHINE]	86%	100%	shown to inhibit the replication of Herpes Simplex virus	98%	> 90%	2.8	marked ability to augment the Con A stimulation	significant anti-influenza activity	at least 4 different strains	–	–	–
CCCCCC[C@H]([C@H](C)O)n1cnc2c(=O)[nH]cnc21 (relative stereo) [NPT 15410]	58%	–	shown to inhibit the replication of Herpes Simplex virus	98%	> 90%	–	marked ability to augment the Con A stimulation	–	at least 4 different strains	96%	3.3 fold	does not potentiate the anti-influenza activity; also recorded: equally active
